Reference: article PMC9412374, “Design, Synthesis, and Development of pyrazolo[1,5-a]pyrimidine Derivatives as a Novel Series of Selective PI3Kδ Inhibitors: Part I—Indole Derivatives” (Pharmaceuticals, 2022)
Values joined by “and” are separate entries in the source; they are usually repeats but may differ in a detail not shown here. Equal values may be shown once. Read-outs that look alike come from different tables or passages of the source.

Legend:
[1] = target: T1, PI3Kα (Homo sapiens, UniProt P42336); assay: In vitro kinase inhibition assay for PI3K (ADP-Glo), PI3Kα; format: biochemical; details: for IC50: recombinant kinase, ADP-Glo, mean of two independent experiments; for Fold Selectivity α/δ: ratio of IC50 PI3Kα to IC50 PI3Kδ
T1 construct: purchased Carna Biosciences
Protocol: (§1) Tested compounds were dissolved in 100% DMSO, and obtained solutions were serially diluted in 1× reaction buffer. The recombinant kinase solution was diluted in a reaction mixture comprising 5× reaction buffer, respective compound solution (1 mM sodium diacetate 4,5-bisphosphate phosphatidylinositol (PIP2) solution in 40 mM Tris buffer), and water. In a 96-wells plate, 5 μL of compound solutions and 15 μL of the kinase solution in the reaction mixture were added per well. To initiate the interaction of chemical compounds to be tested with the enzyme, the plate was incubated for 10 min at a suitable temperature in a plate thermostat with orbital shaking at 600 rpm. Negative control wells contained all the above reagents except tested compound and kinase, and positive control wells contained all the above reagents except tested compounds. The enzymatic reaction was initiated by adding 5 μL of 150 μM ATP solution. Subsequently, the plate was incubated for 1 h at 25 or 30 °C (depending on the PI3K isoform tested) in a plate thermostat with orbital shaking of the plate contents at 600 rpm. The reaction conditions are combined in the table below (Table 6).
(§2) Detection of ADP formed in the enzymatic reaction was then performed using ADP-Glo Kinase Assay™ (Promega, Madison, WI, USA). To the wells of a 96-well plate, 25 μL of ADP-Glo Reagent™ was added, and the plate was incubated for 40 min at 25 °C in a plate thermostat with orbital shaking at 600 rpm. Then 50 μL of Kinase Detection Reagent were added to each well, and the plate was incubated for 40 min at 25 °C in a plate thermostat with orbital shaking at 600 rpm. Once the incubation was complete, the luminescence intensity was measured using a Victor Light luminometer (Perkin Elmer, Inc., Waltham, MA, USA). IC50 values were determined based on luminescence intensity measured in wells containing tested compounds at different concentrations in relation to control wells. These values were calculated with Graph Pad 5.03 software by fitting the curve using non-linear regression. Each compound was tested at least in quadruplicates (4 wells) on two 96-well plates utilizing at least 4 wells for each control. Averaged results of inhibition activity respective to specific isoforms of PI3K kinases for tested compounds are presented as IC50 values in Table 1, Table 2, Table 3 and Table 4.

[2] = target: T2, PI3Kδ (Homo sapiens, UniProt O00329); assay: In vitro kinase inhibition assay for PI3K (ADP-Glo), PI3Kδ; format: biochemical; details: recombinant kinase, mean of two independent experiments
T2 construct: purchased Merck Millipore
Protocol: as §1, with “The enzymatic reaction was initiated by adding 5 μL of 150 μM ATP solution.” left out
as §2, with “These values were calculated with Graph Pad 5.03 software by fitting the curve using non-linear regression.” left out, “control.” for “control. Averaged results of inhibition activity respective to specific isoforms of PI3K kinases for tested compounds are presented as IC50 values in Table 1, Table 2, Table 3 and Table 4.”

T2 sequence (P27986 whole entry): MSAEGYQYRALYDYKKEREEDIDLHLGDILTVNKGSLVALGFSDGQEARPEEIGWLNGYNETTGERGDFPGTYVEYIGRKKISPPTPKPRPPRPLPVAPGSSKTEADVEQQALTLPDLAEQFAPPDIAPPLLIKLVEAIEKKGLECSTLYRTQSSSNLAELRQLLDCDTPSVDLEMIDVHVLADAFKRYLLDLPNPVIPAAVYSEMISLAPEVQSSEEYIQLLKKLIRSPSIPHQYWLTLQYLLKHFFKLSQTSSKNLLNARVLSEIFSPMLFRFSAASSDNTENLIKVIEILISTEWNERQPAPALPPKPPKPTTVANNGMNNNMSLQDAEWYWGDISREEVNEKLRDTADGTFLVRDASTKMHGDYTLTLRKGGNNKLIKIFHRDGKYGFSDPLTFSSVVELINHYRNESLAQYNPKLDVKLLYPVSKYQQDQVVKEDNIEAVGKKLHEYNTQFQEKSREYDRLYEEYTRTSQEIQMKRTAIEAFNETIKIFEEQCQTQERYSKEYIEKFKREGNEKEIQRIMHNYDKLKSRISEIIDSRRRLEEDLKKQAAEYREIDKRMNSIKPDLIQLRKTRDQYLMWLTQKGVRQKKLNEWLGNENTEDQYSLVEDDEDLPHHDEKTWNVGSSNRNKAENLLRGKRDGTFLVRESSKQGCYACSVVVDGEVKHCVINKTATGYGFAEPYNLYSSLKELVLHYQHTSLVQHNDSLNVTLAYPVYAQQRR
T2 sequence (O00329 whole entry): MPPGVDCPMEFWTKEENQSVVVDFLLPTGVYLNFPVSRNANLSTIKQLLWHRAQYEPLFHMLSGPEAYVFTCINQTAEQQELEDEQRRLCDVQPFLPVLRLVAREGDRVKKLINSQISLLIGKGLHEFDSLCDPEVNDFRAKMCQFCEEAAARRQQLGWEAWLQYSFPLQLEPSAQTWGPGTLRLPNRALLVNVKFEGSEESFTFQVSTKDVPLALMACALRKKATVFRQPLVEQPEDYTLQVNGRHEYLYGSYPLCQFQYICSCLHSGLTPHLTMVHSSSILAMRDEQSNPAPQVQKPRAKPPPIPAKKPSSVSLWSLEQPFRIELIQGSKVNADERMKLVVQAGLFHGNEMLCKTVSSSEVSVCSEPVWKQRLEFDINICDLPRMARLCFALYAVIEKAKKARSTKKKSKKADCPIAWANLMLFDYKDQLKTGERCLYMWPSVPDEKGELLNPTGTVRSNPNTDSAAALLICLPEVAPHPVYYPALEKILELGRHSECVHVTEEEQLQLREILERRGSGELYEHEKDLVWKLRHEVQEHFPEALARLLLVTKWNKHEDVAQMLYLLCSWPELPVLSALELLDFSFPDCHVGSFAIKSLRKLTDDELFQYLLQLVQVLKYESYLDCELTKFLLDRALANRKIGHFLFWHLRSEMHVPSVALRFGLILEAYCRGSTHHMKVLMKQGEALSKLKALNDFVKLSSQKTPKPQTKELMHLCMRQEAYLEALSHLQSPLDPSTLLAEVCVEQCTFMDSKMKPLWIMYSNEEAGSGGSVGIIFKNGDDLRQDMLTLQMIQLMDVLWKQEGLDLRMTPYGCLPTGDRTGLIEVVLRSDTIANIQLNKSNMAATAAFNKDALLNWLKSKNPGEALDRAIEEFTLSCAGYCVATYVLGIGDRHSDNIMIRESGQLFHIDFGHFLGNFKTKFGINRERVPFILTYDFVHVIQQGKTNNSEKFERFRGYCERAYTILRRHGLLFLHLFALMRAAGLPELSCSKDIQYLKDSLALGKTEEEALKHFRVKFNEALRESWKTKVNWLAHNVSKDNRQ
T1 sequence (P42336 whole entry): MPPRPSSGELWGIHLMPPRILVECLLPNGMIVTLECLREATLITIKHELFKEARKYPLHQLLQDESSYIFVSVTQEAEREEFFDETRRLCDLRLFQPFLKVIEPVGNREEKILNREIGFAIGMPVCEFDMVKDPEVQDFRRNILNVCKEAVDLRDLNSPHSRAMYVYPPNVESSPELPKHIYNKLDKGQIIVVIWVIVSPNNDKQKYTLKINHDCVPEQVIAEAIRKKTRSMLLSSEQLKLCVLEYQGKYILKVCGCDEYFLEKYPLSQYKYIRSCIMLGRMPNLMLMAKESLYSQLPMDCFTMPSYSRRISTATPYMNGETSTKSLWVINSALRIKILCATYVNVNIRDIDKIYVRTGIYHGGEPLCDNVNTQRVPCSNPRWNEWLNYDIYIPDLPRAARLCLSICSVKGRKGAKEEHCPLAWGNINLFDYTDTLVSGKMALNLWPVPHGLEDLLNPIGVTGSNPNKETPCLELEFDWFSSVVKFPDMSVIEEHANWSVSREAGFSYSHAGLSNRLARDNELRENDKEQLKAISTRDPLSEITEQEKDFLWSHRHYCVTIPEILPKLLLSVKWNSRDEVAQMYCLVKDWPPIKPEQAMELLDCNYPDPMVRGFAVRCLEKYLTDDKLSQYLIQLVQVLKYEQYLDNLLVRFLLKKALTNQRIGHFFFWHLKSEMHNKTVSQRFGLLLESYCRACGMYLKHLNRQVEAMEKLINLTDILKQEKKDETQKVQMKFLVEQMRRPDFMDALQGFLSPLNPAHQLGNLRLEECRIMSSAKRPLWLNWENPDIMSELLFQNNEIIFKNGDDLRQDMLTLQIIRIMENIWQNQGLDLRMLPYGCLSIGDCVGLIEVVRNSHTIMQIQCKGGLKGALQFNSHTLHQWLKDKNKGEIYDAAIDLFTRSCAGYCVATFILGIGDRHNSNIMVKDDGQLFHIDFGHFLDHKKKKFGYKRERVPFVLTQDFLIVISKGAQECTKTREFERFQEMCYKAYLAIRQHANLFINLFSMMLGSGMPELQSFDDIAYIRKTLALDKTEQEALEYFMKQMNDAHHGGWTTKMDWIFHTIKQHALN
T1 sequence (P27986 whole entry partner): as the sequence (P27986 whole entry) above

Row | Structure (SMILES) | IC50 ([1]; IC50 PI3Kα) [nM] | Fold Selectivity α/δ [1] | IC50 ([2]; read-out: IC50 PI3Kδ) | IC50 ([1]; IC50 PI3K α) [nM] | IC50 ([2]; read-out: IC50 PI3K δ) [nM]
1 | CCc1nc2ccccc2n1-c1cc(N2CCOCC2)n2nc(C)cc2n1 [Compound 6, 2-methyl-5-(2-ethylbenzimidazol-1-yl)-7-(morpholin-4-yl)pyrazolo[1,5-a]pyrimidine] | 25900 | 11 | 2300 nM | – | –
2 | c1cc(-c2cc(N3CCOCC3)n3nc(CN4CCN(C5COC5)CC4)cc3n2)c2cc[nH]c2c1 [Compound 42] | – | 334 | – | 18700 | 56
3 | Cc1cc2nc(-c3ccc(N)nc3)cc(N3CCOCC3)n2n1 [Compound 11, 2-methyl-7-(morpholin-4-yl)-5-(2-aminopyridin-5-yl)pyrazolo[1,5-a]pyrimidine] | 4640 | 0.7 | 6860 nM | – | –
4 | O[C@H]1CCN(Cc2cc3nc(-c4cccc5[nH]ccc45)cc(N4CCOCC4)n3n2)C1 [Compound 26] | – | – | – | – | 2210
5 | CN1CCN(Cc2cc3nc(-c4cccc5[nH]ccc45)cc(N4CCOCC4)n3n2)CC1 [Compound 33, 5-(1H-indol-4-yl)-2-((4-methyl-piperazin-1-yl)methyl)-7-(morpholin-4-yl)pyrazolo[1,5-a]pyrimidine] | – | 220 | – | 42400 | 193
6 | O=S1(=O)CCN(Cc2cc3nc(-c4cccc5[nH]ccc45)cc(N4CCOCC4)n3n2)CC1 [Compound 27, 2-((1,1-dioxothiomorpholin-1-yl)-methyl)-5-(1H-indol-4-yl)-7-(morpholin-4-yl)pyrazolo[1,5-a]pyrimidine] | – | 33 | – | 8650 | 266
7 | COC(=O)C1CCN(Cc2cc3nc(-c4cccc5[nH]ccc45)cc(N4CCOCC4)n3n2)CC1 [Compound 35, Methyl 1-((5-(1H-indol-4-yl)-7-(morpholin-4-yl)pyrazolo[1,5-a]pyrimidin-2-yl)methyl)piperidin-4-carboxylate] | – | 61 | – | 8460 | 138
8 | Cc1cc2nc(-c3cccc4[nH]ccc34)cc(N3CCOCC3)n2n1 [Compound 13, 2-methyl-7-(morpholin-4-yl)-5-(1H-indole-4-yl)pyrazolo[1,5-a]pyrimidine] | 23500 | 30 | 772 nM | – | –
9 | CN1CCN(C2CCN(Cc3cc4nc(-c5cccc6[nH]ccc56)cc(N5CCOCC5)n4n3)CC2)CC1 [Compound 29, 5-(1H-indol-4-yl)-2-((4-(4-methylpiperazin-1-yl)piperidin-1-yl)methyl)-7-(morpholin-4-yl)pyrazolo[1,5-a]pyrimidine] | – | 301 | – | 15600 | 52
10 | O[C@@H]1CCN(Cc2cc3nc(-c4cccc5[nH]ccc45)cc(N4CCOCC4)n3n2)C1 [Compound 25] | – | – | – | – | 1990
11 | CS(=O)(=O)N1CCN(Cc2cc3nc(-c4cccc5[nH]ccc45)cc(N4CCOCC4)n3n2)CC1 [Compound 23, 5-(1H-indol-4-yl)-2-((4-(methyl-sulphonyl)piperazin-1-yl)methyl)-7-(morpholin-4-yl)pyrazolo[1,5-a]pyrimidine] | 2350 | 5.8 | 400 nM | 2350 | 402
12 | Cc1cc2nc(-c3cccc4[nH]ncc34)cc(N3CCOCC3)n2n1 [Compound 12, 2-methyl-7-(morpholin-4-yl)-5-(1H-indazole-4-yl)pyrazolo[1,5-a]pyrimidine] | 4810 | 1.2 | 3850 nM | – | –
13 | c1cc(-c2cc(N3CCOCC3)n3nc(CN4CC5CC4CN5C4COC4)cc3n2)c2cc[nH]c2c1 [Compound 43, 5-(1H-indol-4-yl)-2-(((1S, 4S)-2-(oxetan-3-yl)-2,5-diaza-bicyclo [2.2.1]hept-2-yl)methyl)-7-(morpholin-4-yl)pyrazolo[1,5-a]pyrimidine] | – | 318 | – | 22600 | 71
14 | c1cc(-c2cc(N3CCOCC3)n3nc(CN4CCN(CC5CC5)CC4)cc3n2)c2cc[nH]c2c1 [Compound 45, 2-((4-(cyclopropylmethyl)piperazin-1-yl)methyl)-5-(1H-indol-4-yl)-7-(morpholin-4-yl)pyrazolo[1,5-a]pyrimidine] | – | 218 | – | 6320 | 29
15 | O=C(Nc1ccccc1)NC1CCN(Cc2cc3nc(-c4cccc5[nH]ccc45)cc(N4CCOCC4)n3n2)CC1 [Compound 31, 1-phenyl-3-(1-((5-(1H-indol-4-yl)-7-(morpholin-4-yl)pyrazolo[1,5-a]pyrimidin-2-yl)methyl)piperidin-4-yl)urea] | – | – | – | – | 559
16 | CCNC(=O)NC1CCN(Cc2cc3nc(-c4cccc5[nH]ccc45)cc(N4CCOCC4)n3n2)CC1 [Compound 30, 3-ethyl-1-(1-((5-(1H-indol-4-yl)-7-(morpholin-4-yl)pyrazolo[1,5-a]pyrimidin-2-yl)methyl)piperidin-4-yl)urea] | – | 39 | – | 14200 | 360
17 | c1cc(-c2cc(N3CCOCC3)n3nc(CN4CCN(C5CCCC5)CC4)cc3n2)c2cc[nH]c2c1 [Compound 40, 2-((4-cyclopentylpiperazin-1-yl)methyl)-5-(1H-indol-4-yl)-7-(morpholin-4-yl)pyrazolo[1,5-a]pyrimidine] | – | 329 | – | 13800 | 42
18 | Cc1cc2nc(-c3cn[nH]c3)cc(N3CCOCC3)n2n1 [Compound 10, 2-methyl-7-(morpholin-4-yl)-5-(1H-pyrazol-4-yl)pyrazolo[1,5-a]pyrimidine] | 36200 | 2.9 | 12700 nM | – | –
19 | Cc1cc2nc(-n3c(C(F)F)nc4ccccc43)cc(N3CCOCC3)n2n1 [Compound 7, 2-methyl-5-(2-difluoromethylbenzimidazol-1-yl)-7-(morpholin-4-yl)pyrazolo[1,5-a]pyrimidine] | 1060 | 2.2 | 470 nM and 475 nM | – | –
20 | Cc1cc2nc(-n3c(C)nc4ccccc43)cc(N3CCOCC3)n2n1 [Compound 5, 2-methyl-5-(2-methylbenzimidazol-1-yl)-7-(morpholin-4-yl)pyrazolo[1,5-a]pyrimidine] | 35100 | 9.9 | 3560 nM | – | –
21 | c1cc(-c2cc(N3CCOCC3)n3nc(CN4CCOCC4)cc3n2)c2cc[nH]c2c1 [Compound 28, 5-(1H-indol-4-yl)-7-(morpholin-4-yl)-2-((morpholin-4-yl)methyl)pyrazolo[1,5-a]pyrimidine] | – | – | – | – | 1070
22 | Cc1cc(Nc2cc(N3CCOCC3)n3nc(C)cc3n2)[nH]n1 [Compound 9, 3-methyl-N-[2-methyl-7-(morpholin-4-yl)pyrazolo[1,5-a]pyrimidin-5-yl]-1H-pyrazol-5-amine] | > 60000 | >1.4 | 43600 nM | – | –
23 | COc1ccc(N2CCN(Cc3cc4nc(-c5cccc6[nH]ccc56)cc(N5CCOCC5)n4n3)CC2)cc1 [Compound 32, 5-(1H-indol-4-yl)-2-((4-(4-methoxyphenyl)piperazin-1-yl)-methyl)-7-(morpholin-4-yl)pyrazolo[1,5-a]pyrimidine] | – | 50 | – | 8790 | 177
